Reference: patent US6034064A, “Peptides and therapeutic agent for autoimmune diseases containing the same” (Hoechst Pharmaceuticals & Chemicals K.K., priority 1995, dated 2000)
No end group written: not given here.

What was measured:
[1] = system: anti-KLH antibody production; experiment: Suppressive effect on anti-KLH antibody production in mice (ELISA of serum IgG); assay type: in vivo, mouse (Balb/c); settings: Example 7
Method: Day 5 and day 3 prior to the antigen administration, 100 μg of each Peptide (I) to (VI) of the present invention composed of 9 amino acid residues indicated by Sequence ID No. 1 in the Sequence Listing were dissolved in 200 μl of physiological saline. The resulting solution was subcutaneously administered to 9-week-old Balb/c mice. As a control, a non-administered group to which the same amount of physiological saline was administered was employed. In 200 μl of physiological saline, 25 μg of KLH were dissolved as an antigen and the resulting solution was subcutaneously administered. The blood was collected on day 21 after antigen administration and an antibody titer was measured by the method which is described below.
KLH was diluted to 10 μg/ml with a phosphate buffered physiological saline (PBS). Fifty μl portions of the resulting solution were poured into a 96-well microplate and the plate was allowed to stand at 4iC overnight. After the microplate was washed three times with 0.05% Tween®-20-containing PBS (T-PBS), 200 μl portions of 0.5% casein tris-buffered physiological saline (casein TBS) were poured into wells, respectively. […] The microplate was washed three times with T-PBS and 50 μl portions of the mouse serum diluted to 1/200 with casein TBS were poured into the wells, followed by reaction for one hour (primary reaction).
The resulting microplate was washed three times with T-PBS, to which 50 μl portions of an anti-mouse IgG-peroxidase-labeled antibody (TAGO Co.) diluted to 1/4000 with casein TBS were poured. The reaction was effected at room temperature for one hour (secondary reaction). After the completion of the secondary reaction, the plate was washed three times again. Fifty μl portions of a substrate liquid/chromogen (chromogen substrate: Behringwerke AG) were poured into wells, respectively, followed by reaction at room temperature for 30 minutes. After the completion of the reaction, 0.5N diluted sulfuric acid was added to terminate the reaction and an absorbance at 450 nm was measured by a calorimeter ("BEP-II ", product of Behringwerke AG/Germany) with the absorbance at 650 nm as a control.
In a similar manner to Example 3, suppressive effects of Peptides (I), (VII) to (XV) on anti-KLH antibody production in mice were studied.

[2] = system: anti-OVA antibody production; experiment: Suppressive effect on anti-OVA antibody production in mice (ELISA of serum IgG); assay type: in vivo, mouse (Balb/c); set-up: Anti OVA Ig-G antibody titer: dose or concentration left out as unconfirmed; settings: for anti-OVA antibody production compared with Peptide (I) administered group / anti-OVA antibody production compared with the non-administered group and Peptide (I) administered group: Example 8
Method: Day 5 and day 3 prior to the antigen administration, Peptide (I) composed of 9 amino acid residues as indicated by Sequence ID No. 1 in the Sequence Listing of the present invention and a synthetic peptide 15 composed of 15 amino acid residues derived from clone 17.2 TcR, which peptide had been reported by Mohapatra et al. as described above, 100 g each, were dissolved in 200 of physiological saline and each solution thus obtained was subcutaneously administered to 9-week-old Balb/c mice. As a control, a non-administered group to which the same amount of physiological saline was administered was employed. In 200 l of physiological saline, 100 g of OVA (Sigma Chemical Co.) were dissolved, followed by subcutaneous administration. Blood was collected on day 21 after antigen administration and an antibody titer was measured by the method described below.
OVA was diluted to 10 µg/ml with phosphate buffered saline (PBS) and 50 l portions of the solution were poured in a 96-well microplate. The coating operation was conducted overnight at […]. The microplate was then washed three times with a 0.05% Tween®-20-containing PBS (T-PBS). 200 l portions of 0.5% casein-containing tris buffered physiological saline (casein TBS) were poured in each well and the microplate was allowed to stand at room temperature for one hour. The microplate was then washed three times with T-PBS. After the serum of the blood collected from the mice was diluted to 1/200 with 0.5% casein TBS, 50 l portions of the diluted serum were poured in each well and the plate was allowed to stand for one hour (primary reaction).
After the completion of the primary reaction, the microplate was washed three times with T-PBS. Fifty l portions of anti-mouse IgG-peroxidase-labeled antibody (TAGO Co.) diluted to 1/4000 with 0.5% casein TBS were poured in each well, followed by reaction at room temperature for one hour (secondary reaction). After the completion of the secondary reaction, the plate was washed three times again. Fifty l portions of a substrate liquid/chromogen (chromogen substrate: Behringwerke AG) were poured in each well, followed by reaction at room temperature for 30 minutes. After the completion of the reaction, 0.5N diluted sulfuric acid was added to terminate the reaction and an absorbance at 450 nm was measured by a calorimeter ("BEP-II", product of Behringwerke AG/Germany) with an absorbance at 650 nm as a control.
In a similar manner to Example 2, the suppressive effects of Peptides (I), (VII) to (XIV) on the anti-OVA antibody production in mice were measured.

EAE model mice = experiment: Onset suppressive effect on EAE model mice; assay type: in vivo, mouse (SJL)
Method: As an antigen, guinea pig spinal chord homogenate was employed. The guinea pig spinal chord homogenate was diluted with PBS to be 6.6 mg/ml, followed by the addition of the equivalent amount of Freunds complete adjuvant. The resulting mixture was formed into an emulsion by an ultrasonic sonicator. The resulting emulsion was administered to two areas under the lateral skin in a total amount of 300 μl. Day 5 and day 3 prior to antigen administration, and 5 days a week for 4 weeks after antigen administration, the solution of Peptide (I) dissolved in 100 μl physiological saline was subcutaneously administered to a 14-week old SJL mouse. Incidentally, in order to increase an onset ratio, […] of pertussis toxin (PTX) were intravenously administered as an enhancer on the day of antigen administration and two days after antigen administration. Observation of the onset was performed from day 14 to day 28 after primary antigen administration. The onset was scored based on the following standard criteria [Pettinelli, C. B., Fritz, D. E., and McFarlin, D. E. J. Immunl., 129, No. 3, 1024-1028 (1982)]. In Table 3, values of average score+standard deviation (SD) in each administration group on day 22, day 25 and day 28 after primary antigen administration are shown.
Score 1: Slight paralysis of hind leg with tail weakness
Score 2: Moderate paralysis of hind leg with tail weakness
Score 3: Total paralysis of hind leg
Score 4: Slight paralysis of forward leg with total paralysis of hind leg
Score 5: Total paralysis of all leg
Score 6: Death from paralysis

AALTFGKG [Peptide (VIII), Ala-Ala-Leu-Thr-Phe-Gly-Lys-Gly]
anti-KLH antibody production compared with Peptide (I) administered group [1]: not suppressed

AKATFGKG [Peptide (XIII), Ala-Lys-Ala-Thr-Phe-Gly-Lys-Gly]
anti-KLH antibody production compared with Peptide (I) administered group [1]: not suppressed | anti-OVA antibody production compared with Peptide (I) administered group [2]: not suppressed

AKLAFGKG [Peptide (IX), Ala-Lys-Leu-Ala-Phe-Gly-Lys-Gly]
anti-KLH antibody production compared with the non-administered group and Peptide (I) administered group [1]: significantly suppressed | anti-OVA antibody production compared with the non-administered group and Peptide (I) administered group [2]: significantly suppressed

AKLTAGKG [Peptide (XIV), Ala-Lys-Leu-Thr-Ala-Gly-Lys-Gly]
anti-KLH antibody production compared with Peptide (I) administered group [1]: not suppressed | anti-OVA antibody production compared with Peptide (I) administered group [2]: not suppressed

AKLTFAKG [Peptide (X), Ala-Lys-Leu-Thr-Phe-Ala-Lys-Gly]
anti-KLH antibody production compared with the non-administered group and Peptide (I) administered group [1]: significantly suppressed

AKLTFGAG [Peptide (XI), Ala-Lys-Leu-Thr-Phe-Gly-Ala-Gly]
anti-KLH antibody production compared with the non-administered group and Peptide (I) administered group [1]: significantly suppressed | anti-OVA antibody production compared with the non-administered group and Peptide (I) administered group [2]: significantly suppressed

AKLTFGKA [Peptide (XII), Ala-Lys-Leu-Thr-Phe-Gly-Lys-Ala]
anti-KLH antibody production compared with Peptide (I) administered group [1]: not suppressed

AKLTFGKG [Peptide (VII), Ala-Lys-Leu-Thr-Phe-Gly-Lys-Gly]
anti-KLH antibody production compared with the non-administered group and Peptide (I) administered group [1]: significantly suppressed | anti-OVA antibody production compared with the non-administered group and Peptide (I) administered group [2]: significantly suppressed

AKLTFGKGT [Peptide (I), Ala-Lys-Leu-Thr-Phe-Gly-Lys-Gly-Thr]
Anti OVA Ig-G antibody titer ([2]; Example 2, Table 1, peptide s.c. day 5 and day 3 prior to OVA, blood day 21, 8 mice per group): 8.8 ± 10.8 unit | anti-OVA antibody production compared with the non-administered group ([2]; Example 2, 8 mice per group): significantly suppressed | EAE average score ± SD (EAE model mice; 1 μg/body s.c., Day 22): 1.6 ± 1.8 score | EAE average score ± SD (EAE model mice; 1 μg/body s.c., Day 25): 0.9 ± 1.1 score | EAE average score ± SD (EAE model mice; 1 μg/body s.c., Day 28): 1.8 ± 1.9 score | EAE average score ± SD (EAE model mice; 5 μg/body s.c., Day 22): 0.4 ± 0.7 score | EAE average score ± SD (EAE model mice; 5 μg/body s.c., Day 25): 1.0 ± 1.1 score | EAE average score ± SD (EAE model mice; 5 μg/body s.c., Day 28): 0.7 ± 0.8 score | onset of EAE compared with physiological saline group (EAE model mice; 5 μg/body, day 25 and day 28, significant difference of 5%): suppressed | EAE average score ± SD (EAE model mice; 25 μg/body s.c., Day 22 after primary antigen administration): 0.3 ± 0.4 score | EAE average score ± SD (EAE model mice; 25 μg/body s.c., Day 25): 0.1 ± 0.3 score | EAE average score ± SD (EAE model mice; 25 μg/body s.c., Day 28): 0.0 ± 0.0 score | onset of EAE compared with physiological saline group (EAE model mice; 25 μg/body, from day 22 significant difference of 5%, from day 25 of 1%): suppressed | onset of EAE (EAE model mice; administration of Peptide (I), overall): suppressed

KLTFGKG [Peptide (XV), Lys-Leu-Thr-Phe-Gly-Lys-Gly]
anti-KLH antibody production compared with Peptide (I) administered group [1]: not suppressed
